ChEMBL document CHEMBL5532653, “Dual inhibitors of HDAC and other epigenetic regulators: A novel strategy for cancer treatment” (Eur J Med Chem, 2024)
pIC50: −log10 of the molar value.

Assays:
[1] = Inhibition of HDAC1 ([…] residues) (unknown origin) FLAG-tagged CoREST1 (unknown origin) transfected in HEK293F cells using fluorogenic p53 (RHKK(Ac)AMC) as substrate preincubated for 30 mins followed by substrate addition and measured after 15 mins by fluorescence based analysis; parameters: species or system Homo sapiens
SK-MEL-5 = assay: Antiproliferative activity against human SK-MEL-5 cells assessed as reduction in cell viability incubated for 72 hrs by MTT assay; assay type: functional, cell-based; details: SK-MEL-5, 72 h
[2] = Antiproliferative activity against human MET-1 cells assessed as reduction in cell viability incubated for 72 hrs by MTT assay; assay type: functional, cell-based; details: MET-1, 72 h
[3] = Antiproliferative activity against human SCCIC1 cells assessed as cell growth inhibition measured after 72 hrs; assay type: functional, cell-based; details: SCCIC1, 72 h
[4] = Antiproliferative activity against human WM983B cells assessed as reduction in cell growth incubated for 72 hrs by MTT assay; assay type: functional, cell-based
Histone deacetylase 1 [5] = molecular target: T1, Histone deacetylase 1 (Homo sapiens, UniProt Q13547); assay: Inhibition of HDAC1 (unknown origin) using Boc-Lys(Ac)-AMC or Boc-Lys(Tfa)-AMC as substrate incubated for 1 hr by fluorescence based analysis
U-937 [6] = assay: Antiproliferative activity against human U-937 cells assessed as reduction in cell growth incubated for 72 hrs by MTT assay; assay type: functional, cell-based; details: U-937, 72 h
[7] = molecular target: T2, Protein deacetylase HDAC6 (Homo sapiens, UniProt Q9UBN7); assay: Inhibition of HDAC6 (unknown origin) using expressed in Sf9 cells using Boc-Lys(acetyI)-AMC as substrate preincubated for 1 hr followed by substrate addition and measured after 30 mins by fluorescence based analysis
T2 sequence (Q9UBN7 whole entry): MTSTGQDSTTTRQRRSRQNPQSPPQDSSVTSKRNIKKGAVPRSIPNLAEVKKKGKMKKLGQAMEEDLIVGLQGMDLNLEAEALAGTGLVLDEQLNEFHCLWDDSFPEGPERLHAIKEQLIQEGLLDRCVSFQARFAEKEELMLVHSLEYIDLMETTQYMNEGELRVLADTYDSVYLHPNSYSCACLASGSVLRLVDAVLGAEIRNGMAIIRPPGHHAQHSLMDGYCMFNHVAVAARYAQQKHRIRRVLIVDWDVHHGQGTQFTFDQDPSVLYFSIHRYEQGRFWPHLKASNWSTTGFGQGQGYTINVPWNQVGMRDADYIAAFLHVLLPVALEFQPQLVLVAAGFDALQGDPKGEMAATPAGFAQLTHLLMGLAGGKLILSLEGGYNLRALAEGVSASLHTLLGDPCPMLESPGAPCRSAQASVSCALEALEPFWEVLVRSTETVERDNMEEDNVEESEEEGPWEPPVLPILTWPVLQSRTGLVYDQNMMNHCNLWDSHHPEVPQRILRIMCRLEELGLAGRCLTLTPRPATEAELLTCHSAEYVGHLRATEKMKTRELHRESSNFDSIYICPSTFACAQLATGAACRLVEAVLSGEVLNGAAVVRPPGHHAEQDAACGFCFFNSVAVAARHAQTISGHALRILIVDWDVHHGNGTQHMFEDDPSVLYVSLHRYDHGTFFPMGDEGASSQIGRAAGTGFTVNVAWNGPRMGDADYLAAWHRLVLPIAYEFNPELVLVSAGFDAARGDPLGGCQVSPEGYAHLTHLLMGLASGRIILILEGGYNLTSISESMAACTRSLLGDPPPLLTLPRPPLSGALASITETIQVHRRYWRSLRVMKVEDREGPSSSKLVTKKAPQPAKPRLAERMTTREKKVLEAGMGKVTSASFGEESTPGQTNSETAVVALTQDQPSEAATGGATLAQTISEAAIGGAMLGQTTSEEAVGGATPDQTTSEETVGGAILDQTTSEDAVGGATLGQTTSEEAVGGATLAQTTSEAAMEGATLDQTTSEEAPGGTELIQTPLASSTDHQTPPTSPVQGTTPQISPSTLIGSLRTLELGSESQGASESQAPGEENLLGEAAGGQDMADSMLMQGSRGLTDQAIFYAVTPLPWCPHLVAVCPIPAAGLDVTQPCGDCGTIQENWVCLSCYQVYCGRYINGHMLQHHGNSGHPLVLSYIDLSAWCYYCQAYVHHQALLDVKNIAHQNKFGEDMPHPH

[8] = molecular target: T3, DNA (cytosine-5)-methyltransferase 1 (Homo sapiens, UniProt P26358); assay: Inhibition of DNMT1 (unknown origin) using SAM as substrate at 1 uM by fluorescence assay relative to control
[9] = molecular target: T2, Protein deacetylase HDAC6; assay: Inhibition of HDAC6 (unknown origin) by fluorescence based assay
[10] = molecular target: T4, Bromodomain-containing protein 2 (Homo sapiens, UniProt P25440); assay: Inhibition of BRD2 BD2 (unknown origin) incubated for 180 min by TR-FRET assay
[11] = molecular target: Bromodomain testis-specific protein (Homo sapiens, UniProt Q58F21); assay: Inhibition of BRDT BD2 (unknown origin) by TR-FRET assay
Histone deacetylase 8 = Histone deacetylase 8 (Homo sapiens, UniProt Q9BY41); assay: Inhibition of HDAC8 (unknown origin) using Fluoro-Substrate Peptide as substrate by fluorescence assay
[12] = molecular target: T4, Bromodomain-containing protein 2; assay: Inhibition of recombinant BRD2 BD1 (unknown origin) incubated for 120 mins by TR-FRET assay
Histone deacetylase 2 [13] = molecular target: T5, Histone deacetylase 2 (Homo sapiens, UniProt Q92769); assay: Inhibition of HDAC2 (unknown origin) by fluorescence based analysis
[14] = molecular target: T6, Bromodomain-containing protein 3 (Homo sapiens, UniProt Q15059); assay: Inhibition of recombinant BRD3 BD1 (unknown origin) incubated for 120 mins by TR-FRET assay
[15] = molecular target: T6, Bromodomain-containing protein 3; assay: Inhibition of BRD3 BD2 (unknown origin) incubated for 180 min by TR-FRET assay
Histone deacetylase 3 = Histone deacetylase 3 (Homo sapiens, UniProt O15379); assay: Inhibition of HDAC3 (unknown origin) using biotinylated histone H3 KAc peptide (1 to 21 residues) as substrate by HTRF assay
U-937 [16] = assay: Antiproliferative activity against human U-937 cells assessed as inhibition of cell growth at 3 uM measured after 72 hrs by CellTiter-Glo luminescent cell viability assay relative to control; assay type: functional
[17] = Cytotoxicity against human CLL cells assessed as reduction in cell viability at 5 uM relative to control; assay type: toxicity, cell-based
NCI-H460 = assay: Antiproliferative activity against human NCI-H460 cells assessed as reduction in cell growth measured after 72 hrs by MTT assay; assay type: functional, cell-based; details: NCI-H460, 72 h
MEF = assay: Antiproliferative activity against mouse MEF cells assessed as cell growth inhibition measured after 48 hrs by MTT assay; assay type: functional, cell-based
HeLa = assay: Antiproliferative activity against human HeLa cells assessed as reduction in cell viability by MTT assay; assay type: functional, cell-based
A549 [18] = assay: Antiproliferative activity against human A549 cells assessed as reduction in cell viability measured after 48 hrs by MTT assay; assay type: functional, cell-based; details: A549, 48 h
[19] = Cytotoxicity against human HEK293T cells assessed as cell growth inhibition by MTT assay; assay type: toxicity, cell-based, HEK-293T
MCF7 [20] = assay: Antiproliferative activity against human MCF7 cells assessed as reduction in cell growth incubated for 72 hrs by MTT assay; assay type: functional, cell-based; details: MCF7, 72 h
K562 = assay: Antiproliferative activity against human K562 cells assessed as reduction in cell viability by MTT assay; assay type: functional, cell-based
D283 Med = assay: Antiproliferative activity against human D283 Med cells assessed as inhibition of cell growth measured after 72 hrs by CellTiter-Glo assay; assay type: functional, cell-based
Histone deacetylase = assay: Inhibition of human recombinant HDAC in HeLa cells using Boc-Lys(Ac)-AMC or Boc-Lys(Tfa)-AMC as fluorogenic substrate preincubated for 10 mins followed by substrate addition and measured after 1 hr by fluorescence based analysis; assay type: cell-based
Histone deacetylase 2 [21] = molecular target: T5, Histone deacetylase 2; assay: Inhibition of human recombinant HDAC2 in HeLa cells using Boc-Lys(Ac)-AMC or Boc-Lys(Tfa)-AMC as fluorogenic substrate preincubated for 10 mins followed by substrate addition and measured after 1 hr by fluorescence based analysis; assay type: cell-based
[22] = molecular target: T2, Protein deacetylase HDAC6; assay: Inhibition of human recombinant HDAC6 in HeLa cells using Boc-Lys(Ac)-AMC or Boc-Lys(Tfa)-AMC as fluorogenic substrate preincubated for 10 mins followed by substrate addition and measured after 1 hr by fluorescence based analysis; assay type: cell-based
MDA-MB-231 = assay: Antiproliferative activity against human MDA-MB-231 cells assessed as reduction in cell growth by MTT assay; assay type: functional, cell-based
[23] = molecular target: T2, Protein deacetylase HDAC6; assay: Inhibition of HDAC6 (unknown origin) using Ac-peptide as substrate preincubated for 15 mins followed by substrate addition and measured after 1 hr by HTRF analysis
DNMT3A2/3L complex = DNMT3A2/3L complex (Homo sapiens, UniProt Q9Y6K1); assay: Inhibition of DNMT3A/DNMT3L (unknown origin); assay type: protein-complex assay
Histone deacetylase 1 [24] = molecular target: T1, Histone deacetylase 1; assay: Inhibition of HDAC1 (unknown origin) using ArgHisLysLys(Ac) as substrate by fluorescence based analysis
[25] = molecular target: T3, DNA (cytosine-5)-methyltransferase 1; assay: Inhibition of DNMT1 (unknown origin)
A549 [26] = assay: Antiproliferative activity against human A549 cells assessed as reduction in cell growth by MTT assay; assay type: functional, cell-based
DNMT3B-DNMT3L complex = DNMT3B-DNMT3L complex (Homo sapiens, UniProt Q9UBC3); assay: Inhibition of DNMT3B/3L (unknown origin); assay type: protein-complex assay
MCF7 [27] = assay: Antiproliferative activity against human MCF7 cells assessed as reduction in cell growth by MTT assay; assay type: functional, cell-based

T1 sequence (Q13547 whole entry): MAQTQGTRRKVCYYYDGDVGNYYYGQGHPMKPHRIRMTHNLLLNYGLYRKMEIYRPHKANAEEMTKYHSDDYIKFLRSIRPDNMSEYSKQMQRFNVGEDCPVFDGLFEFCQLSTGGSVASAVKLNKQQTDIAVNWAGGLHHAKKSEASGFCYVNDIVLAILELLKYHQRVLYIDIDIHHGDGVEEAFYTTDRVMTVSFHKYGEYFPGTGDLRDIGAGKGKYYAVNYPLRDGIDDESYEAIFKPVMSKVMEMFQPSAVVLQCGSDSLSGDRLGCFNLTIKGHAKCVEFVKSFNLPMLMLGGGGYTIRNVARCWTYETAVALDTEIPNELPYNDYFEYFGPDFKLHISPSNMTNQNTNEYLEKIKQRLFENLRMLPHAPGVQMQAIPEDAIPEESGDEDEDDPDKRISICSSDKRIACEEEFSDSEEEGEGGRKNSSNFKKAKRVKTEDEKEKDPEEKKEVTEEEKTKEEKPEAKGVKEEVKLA
T5 sequence (Q92769 whole entry): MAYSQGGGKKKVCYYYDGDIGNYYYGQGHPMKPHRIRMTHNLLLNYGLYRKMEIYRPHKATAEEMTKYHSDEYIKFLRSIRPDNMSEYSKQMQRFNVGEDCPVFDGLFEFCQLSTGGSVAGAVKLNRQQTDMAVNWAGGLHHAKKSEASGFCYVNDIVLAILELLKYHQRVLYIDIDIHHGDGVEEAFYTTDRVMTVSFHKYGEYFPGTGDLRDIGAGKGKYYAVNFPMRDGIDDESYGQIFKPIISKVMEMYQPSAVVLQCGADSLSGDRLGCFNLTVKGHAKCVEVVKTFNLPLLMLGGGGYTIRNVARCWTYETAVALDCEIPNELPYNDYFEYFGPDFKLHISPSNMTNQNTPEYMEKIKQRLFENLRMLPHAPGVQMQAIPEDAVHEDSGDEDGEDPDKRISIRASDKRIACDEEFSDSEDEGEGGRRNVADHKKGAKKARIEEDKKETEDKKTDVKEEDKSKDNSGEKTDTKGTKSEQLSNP
T6 sequence (Q15059 whole entry): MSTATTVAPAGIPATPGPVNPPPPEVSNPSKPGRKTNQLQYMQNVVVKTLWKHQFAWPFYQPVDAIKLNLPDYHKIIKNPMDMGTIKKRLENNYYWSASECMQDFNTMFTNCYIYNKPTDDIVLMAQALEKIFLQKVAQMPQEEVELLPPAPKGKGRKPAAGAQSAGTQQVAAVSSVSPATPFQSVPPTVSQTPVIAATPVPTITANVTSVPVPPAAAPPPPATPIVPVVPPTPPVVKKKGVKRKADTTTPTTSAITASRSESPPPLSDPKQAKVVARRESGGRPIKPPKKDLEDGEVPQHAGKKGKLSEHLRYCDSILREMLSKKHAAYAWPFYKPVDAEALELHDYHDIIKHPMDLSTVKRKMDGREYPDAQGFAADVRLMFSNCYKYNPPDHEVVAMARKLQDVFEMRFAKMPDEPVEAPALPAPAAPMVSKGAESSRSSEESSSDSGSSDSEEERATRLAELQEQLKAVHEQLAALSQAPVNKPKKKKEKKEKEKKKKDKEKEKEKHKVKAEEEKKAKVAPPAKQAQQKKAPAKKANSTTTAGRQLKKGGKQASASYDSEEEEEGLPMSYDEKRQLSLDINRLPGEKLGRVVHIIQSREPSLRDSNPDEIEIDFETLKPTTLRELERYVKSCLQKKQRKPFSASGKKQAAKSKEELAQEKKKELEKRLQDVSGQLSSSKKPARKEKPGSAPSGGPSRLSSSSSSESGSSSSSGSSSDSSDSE
T3 sequence (P26358 whole entry): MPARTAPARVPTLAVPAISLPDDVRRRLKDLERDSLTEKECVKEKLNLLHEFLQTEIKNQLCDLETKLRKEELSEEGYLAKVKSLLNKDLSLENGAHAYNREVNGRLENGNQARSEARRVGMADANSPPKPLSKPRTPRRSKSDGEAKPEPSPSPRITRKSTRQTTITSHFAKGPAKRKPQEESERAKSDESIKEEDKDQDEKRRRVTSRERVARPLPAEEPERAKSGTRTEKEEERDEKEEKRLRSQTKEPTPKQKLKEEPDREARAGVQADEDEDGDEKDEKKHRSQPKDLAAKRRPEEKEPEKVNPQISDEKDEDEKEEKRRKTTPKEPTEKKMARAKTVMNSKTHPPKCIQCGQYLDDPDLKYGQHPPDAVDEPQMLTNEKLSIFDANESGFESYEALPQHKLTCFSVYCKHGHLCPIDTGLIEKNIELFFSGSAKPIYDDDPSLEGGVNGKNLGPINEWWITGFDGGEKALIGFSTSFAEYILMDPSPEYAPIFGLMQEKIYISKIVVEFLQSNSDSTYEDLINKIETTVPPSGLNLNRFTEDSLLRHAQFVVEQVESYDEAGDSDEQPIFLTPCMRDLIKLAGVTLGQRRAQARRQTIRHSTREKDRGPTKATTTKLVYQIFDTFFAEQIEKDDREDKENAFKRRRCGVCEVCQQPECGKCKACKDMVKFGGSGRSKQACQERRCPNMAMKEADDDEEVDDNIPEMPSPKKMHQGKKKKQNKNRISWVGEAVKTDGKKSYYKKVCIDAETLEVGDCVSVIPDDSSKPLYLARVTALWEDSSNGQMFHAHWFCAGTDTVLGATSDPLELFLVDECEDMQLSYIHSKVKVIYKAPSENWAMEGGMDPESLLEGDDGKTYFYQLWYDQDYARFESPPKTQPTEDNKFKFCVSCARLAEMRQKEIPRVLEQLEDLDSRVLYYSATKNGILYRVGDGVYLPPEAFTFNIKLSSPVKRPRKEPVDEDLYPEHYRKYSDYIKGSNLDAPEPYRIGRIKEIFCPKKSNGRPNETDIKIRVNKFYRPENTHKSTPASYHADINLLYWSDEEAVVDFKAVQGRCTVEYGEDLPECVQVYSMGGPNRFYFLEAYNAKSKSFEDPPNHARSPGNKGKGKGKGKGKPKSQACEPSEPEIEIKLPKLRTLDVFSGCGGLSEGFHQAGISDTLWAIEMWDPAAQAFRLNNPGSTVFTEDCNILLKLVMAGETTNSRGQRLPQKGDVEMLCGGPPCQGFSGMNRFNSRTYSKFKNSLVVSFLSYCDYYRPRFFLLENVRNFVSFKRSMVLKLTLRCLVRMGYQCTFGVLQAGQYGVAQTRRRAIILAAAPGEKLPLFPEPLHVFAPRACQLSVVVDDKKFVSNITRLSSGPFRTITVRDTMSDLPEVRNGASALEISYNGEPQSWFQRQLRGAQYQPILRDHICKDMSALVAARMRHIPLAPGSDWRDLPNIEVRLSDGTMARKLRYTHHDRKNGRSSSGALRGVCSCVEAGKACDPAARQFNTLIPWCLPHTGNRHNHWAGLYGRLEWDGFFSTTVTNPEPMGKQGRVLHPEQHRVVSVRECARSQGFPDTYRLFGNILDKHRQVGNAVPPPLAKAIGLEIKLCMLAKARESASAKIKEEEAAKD
T4 sequence (P25440 whole entry): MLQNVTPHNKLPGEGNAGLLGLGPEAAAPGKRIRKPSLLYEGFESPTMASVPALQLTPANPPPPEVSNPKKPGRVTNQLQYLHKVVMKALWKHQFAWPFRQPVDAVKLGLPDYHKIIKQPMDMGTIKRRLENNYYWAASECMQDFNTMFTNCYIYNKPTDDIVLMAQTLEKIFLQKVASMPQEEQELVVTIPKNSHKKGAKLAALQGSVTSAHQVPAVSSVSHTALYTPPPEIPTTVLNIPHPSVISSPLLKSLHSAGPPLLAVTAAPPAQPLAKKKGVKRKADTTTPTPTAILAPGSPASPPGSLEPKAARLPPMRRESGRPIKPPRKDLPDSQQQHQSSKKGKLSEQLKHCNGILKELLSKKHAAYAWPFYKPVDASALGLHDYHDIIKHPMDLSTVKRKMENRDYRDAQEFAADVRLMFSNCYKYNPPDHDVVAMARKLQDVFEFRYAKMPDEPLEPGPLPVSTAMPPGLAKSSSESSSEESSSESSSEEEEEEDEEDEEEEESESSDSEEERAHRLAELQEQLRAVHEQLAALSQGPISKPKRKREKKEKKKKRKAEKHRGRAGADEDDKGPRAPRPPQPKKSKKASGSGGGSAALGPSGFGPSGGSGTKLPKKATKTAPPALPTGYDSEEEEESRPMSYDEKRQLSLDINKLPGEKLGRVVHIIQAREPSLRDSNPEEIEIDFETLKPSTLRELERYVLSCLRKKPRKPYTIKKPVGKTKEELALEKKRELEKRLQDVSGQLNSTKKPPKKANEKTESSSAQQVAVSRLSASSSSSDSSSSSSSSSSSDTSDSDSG
Sequence of DNMT3A2/3L complex (Q9Y6K1 whole entry, looked up, one chain of several): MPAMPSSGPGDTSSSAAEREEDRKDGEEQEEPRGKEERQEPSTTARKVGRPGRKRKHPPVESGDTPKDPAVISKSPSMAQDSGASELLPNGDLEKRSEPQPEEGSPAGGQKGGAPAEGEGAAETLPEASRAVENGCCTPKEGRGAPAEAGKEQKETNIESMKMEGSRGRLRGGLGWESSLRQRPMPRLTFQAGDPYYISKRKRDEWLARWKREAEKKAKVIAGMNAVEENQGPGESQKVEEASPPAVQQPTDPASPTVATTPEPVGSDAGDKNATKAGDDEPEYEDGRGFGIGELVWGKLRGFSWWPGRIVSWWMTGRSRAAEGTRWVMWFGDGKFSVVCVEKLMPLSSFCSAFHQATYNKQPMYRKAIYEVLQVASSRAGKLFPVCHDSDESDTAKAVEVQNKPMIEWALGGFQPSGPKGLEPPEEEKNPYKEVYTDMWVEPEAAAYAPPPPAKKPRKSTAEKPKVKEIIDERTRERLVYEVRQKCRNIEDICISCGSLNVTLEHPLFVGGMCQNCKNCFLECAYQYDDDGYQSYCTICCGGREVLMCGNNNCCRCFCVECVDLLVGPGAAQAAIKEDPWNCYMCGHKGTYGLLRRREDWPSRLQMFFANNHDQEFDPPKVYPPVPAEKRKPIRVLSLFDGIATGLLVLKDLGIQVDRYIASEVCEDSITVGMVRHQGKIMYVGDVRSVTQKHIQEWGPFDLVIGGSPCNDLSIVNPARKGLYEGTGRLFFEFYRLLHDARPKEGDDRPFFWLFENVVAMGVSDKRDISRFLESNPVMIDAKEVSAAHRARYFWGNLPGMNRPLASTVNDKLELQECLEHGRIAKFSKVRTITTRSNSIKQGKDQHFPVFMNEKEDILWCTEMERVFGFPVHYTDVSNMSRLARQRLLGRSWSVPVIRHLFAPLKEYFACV

SMILES: Nc1ccccc1NC(=O)c1ccc(CCCC(=O)Nc2ccc(C3CC3N)cc2)cc1 (centres undefined)
- pIC50 [1]: 6.69
- pIC50 (SK-MEL-5): 6.89
- pIC50 [2]: 8.22
- pIC50 [3]: 7.39
- pIC50 [4]: 6.70

SMILES: Nc1ncnc2c1ncn2Cc1ccc(-c2cn(CCCCCCC(=O)NO)nn2)cc1
- pIC50 (Histone deacetylase 1 [5]): 8.62
- pIC50 (U-937 [6]): 5.89
- pIC50 [7]: 8.32
- inhibition [8]: 44.5%

SMILES: Cc1sc2c(c1C)C(c1ccc(Cl)cc1)=N[C@@H](CC(=O)Nc1ccc(C(=O)NO)cc1)c1nnc(C)n1-2
- pIC50 [9]: 7.47
- pIC50 [10]: 7.11
- pIC50 [11]: 4.49
- pIC50 (Histone deacetylase 8): 6.72
- pIC50 [12]: 6.50
- pIC50 (Histone deacetylase 2 [13]): 7.28
- pIC50 [14]: 6.88
- pIC50 [15]: 7.42
- pIC50 (Histone deacetylase 3): 7.41

SMILES: Cc1sc2c(c1C)C(c1ccc(Cl)cc1)=N[C@@H](CC(=O)NCCCC(=O)Nc1ccccc1N)c1nnc(C)n1-2
- inhibition at 3 µM (U-937 [16]): 84%

SMILES: Cn1c(CCCCCCC(=O)NO)nc2cc(N(CCCl)CCCl)ccc21 [TINOSTAMUSTINE]
- Activity [17]: ~ 100 nM
- pIC50 (NCI-H460): 5.66
- pIC50 (MEF): 5.24

SMILES: COc1ccc2c(NC3CCN(Cc4ccccc4)CC3)nc(NCCNC(=O)CCCCC(=O)NO)nc2c1
- pIC50 (HeLa): 4.81
- pIC50 (A549 [18]): 4.44
- pIC50 [19]: 4.70
- pIC50 (MCF7 [20]): 4.43
- pIC50 (K562): 5.24

SMILES: Cn1cc(-c2ccc(S(=O)(=O)n3ccc(/C=C/C(=O)Nc4ccccc4N)c3)cc2)cn1 [DOMATINOSTAT]
- pIC50 (D283 Med): 6.82

SMILES: Cc1noc(C)c1-c1ccc2c(c1)c(Cc1ccc(F)cc1)cn2CCCCCCC(=O)NO
- IC50 (Histone deacetylase): 0.291 µM
- pIC50 (Histone deacetylase 2 [21]): 7.54
- pIC50 [22]: < 6.00

SMILES: O=C(NO)C1CCN(C[C@@H](O)COC(Cn2c3ccccc3c3ccccc32)Cn2c3ccccc3c3ccccc32)CC1
- pIC50 (MDA-MB-231): 5.33
- pIC50 [23]: < 4.00
- pIC50 (DNMT3A2/3L complex): 6.03
- pIC50 (Histone deacetylase 1 [24]): 5.38
- pIC50 [25]: 5.69
- pIC50 (A549 [26]): 5.41
- pIC50 (DNMT3B-DNMT3L complex): 5.88
- pIC50 (MCF7 [27]): 5.73
